Literature values as cited in patent US20150272124A1, “ANTIMICROBIAL COMPOSITIONS CONTAINING CATIONIC ACTIVE INGREDIENTS” (Ecolab USA Inc., priority 2014, published 2015).

Details: calcium-chelating agent complex, logarithmic form

**Q.** For O=C(O)CC(NC(CC(=O)O)C(=O)O)C(=O)O (stereo not shown) [IDS, Iminodisuccinic Acid], which “Log Stability constant, Ca2+” value is on record?
**A.** The value was 5.2.
